From US8962608B2, “Cycloalkylnitrile pyrazole carboxamides as janus kinase inhibitors” (Merck Sharp & Dohme Corp., priority 2011, dated 2015)
pIC50: −log10 of the molar value.

Columns and labels:
[1] = biological target: JAK2 (recombinant purified GST-tagged catalytic domain) (Homo sapiens (Human), UniProt O60674); assay: biochemical;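 also: biochemical JAK kinase assay with HTRF detection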
[2] = biological target: JAK1 (recombinant purified GST-tagged catalytic domain) (Homo sapiens (Human), UniProt P23458); assay: biochemical;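 also: biochemical assay with HTRF read-out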
Sequence of JAK1 (recombinant purified GST-tagged catalytic domain) (P23458 875-1153): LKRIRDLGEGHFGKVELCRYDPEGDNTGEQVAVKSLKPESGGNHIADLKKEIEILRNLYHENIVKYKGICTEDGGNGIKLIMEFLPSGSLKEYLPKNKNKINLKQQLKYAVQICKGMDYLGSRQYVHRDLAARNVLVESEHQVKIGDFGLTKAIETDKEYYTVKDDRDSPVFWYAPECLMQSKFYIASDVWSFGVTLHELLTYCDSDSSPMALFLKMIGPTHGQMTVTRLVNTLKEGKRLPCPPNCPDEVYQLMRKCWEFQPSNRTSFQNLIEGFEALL

Sequence of JAK2 (recombinant purified GST-tagged catalytic domain) (O60674 849-1124): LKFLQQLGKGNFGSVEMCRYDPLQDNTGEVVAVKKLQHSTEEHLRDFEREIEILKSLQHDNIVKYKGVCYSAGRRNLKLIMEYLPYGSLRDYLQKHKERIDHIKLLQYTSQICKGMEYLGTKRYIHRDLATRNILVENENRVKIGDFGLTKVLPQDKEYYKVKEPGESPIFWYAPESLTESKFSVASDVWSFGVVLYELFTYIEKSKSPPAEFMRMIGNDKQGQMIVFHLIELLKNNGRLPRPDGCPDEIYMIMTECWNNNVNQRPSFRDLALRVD

SMILES | pIC50 [1] | pIC50 [2]
N#C[C@H]1C[C@H](O)CCC1n1cc(C(N)=O)c(Nc2ccccc2)n1 (mixture of isomers) [Example 2-2, 1-[(1S,2S,4R and 1R,2R,4S)-2-cyano-4-hydroxycyclohexyl]-3-(phenylamino)-1H-pyrazole-4-carboxamide] | 7.15 | 8.22
COC(=O)C1CC[C@H](C#N)C(n2cc(C(N)=O)c(Nc3ccccc3)n2)C1 (mixture of isomers) [Example 2-4, methyl (3R,4R and 3S,4S)-3-[4-carbamoyl-3-(phenylamino)-1H-pyrazol-1-yl]-4-cyanocyclohexanecarboxylate] | < 5.82 | 6.37
N#C[C@@H]1CCC[C@@H](O)C1n1cc(C(N)=O)c(Nc2ccccc2)n1 (mixture of isomers) [Example 2-5, 1-[(1R,2R,6R and 1S,2S,6S)-2-cyano-6-hydroxycyclohexyl]-3-(phenylamino)-1H-pyrazole-4-carboxamide] | < 5.82 | 6.15
N#C[C@H]1CCC[C@@H](O)C1n1cc(C(N)=O)c(Nc2ccccc2)n1 (mixture of isomers) [Example 2-6, 1-[(1R,2S,6R and 1S,2R,6S)-2-cyano-6-hydroxycyclohexyl]-3-(phenylamino)-1H-pyrazole-4-carboxamide] | 6.00 | 6.43
N#C[C@H]1CCC[C@H](O)C1n1cc(C(N)=O)c(Nc2ccccc2)n1 (mixture of isomers) [Example 2-7, 1-[(1R,2S,6S and 1S,2R,6R)-2-cyano-6-hydroxycyclohexyl]-3-(phenylamino)-1H-pyrazole-4-carboxamide] | 6.49 | 6.77
N#C[C@H]1CC[C@H](O)CC1n1cc(C(N)=O)c(Nc2ccccc2)n1 (mixture of isomers) [Example 2-12, 1-[(1R,2R,5R and 1S,2S,5S)-2-cyano-5-hydroxycyclohexyl]-3-(phenylamino)-1H-pyrazole-4-carboxamide] | 7.10 | 7.82
N#C[C@H]1CC[C@@H](O)CC1n1cc(C(N)=O)c(Nc2ccccc2)n1 (mixture of isomers) [Example 2-13, 1-[(1S,2S,5R and 1R,2R,5S)-2-cyano-5-hydroxycyclohexyl]-3-(phenylamino)-1H-pyrazole-4-carboxamide] | 6.73 | 7.57
N#C[C@@H]1CC(CN)CCC1n1cc(C(N)=O)c(Nc2ccc(F)cc2)n1 (mixture of isomers) [Example 9, 1-((1R,2R and 1S,2S)-4-(Aminomethyl)-2-cyanocyclohexyl)-3-((4-fluorophenyl)amino)-1H-pyrazole-4-carboxamide] | 6.61 | 7.92
CN(C)CC1CCC(n2cc(C(N)=O)c(Nc3ccc(F)cc3)n2)[C@H](C#N)C1 (mixture of isomers) [Example 10, 1-((1R,2R and 1S,2S)-2-Cyano-4-((dimethylamino)methyl)cyclohexyl)-3-((4-fluorophenyl)amino)-1H-pyrazole-4-carboxamide] | 6.45 | 7.96
N#C[C@H]1C[C@H](O)CCC1n1cc(C(N)=O)c(Nc2ccc(S(=O)(=O)C(F)F)cc2)n1 (mixture of isomers) [Example 14, 1-[(1S,2S,4R and 1R,2R,4S)-2-Cyano-4-hydroxycyclohexyl]-3-({4-[(difluoromethyl)sulfonyl]phenyl}amino)-1H-pyrazole-4-carboxamide] | 8.52 | 9.49
N#C[C@H]1CCCC[C@@H]1n1cc(C(N)=O)c(Nc2ccnc(C(F)(F)F)c2)n1 (racemic) [Example 17-3, 1-[(1S,2S and 1R,2R)-2-Cyanocyclohexyl]-3-{[2-(trifluoromethyl)pyridin-4-yl]amino}-1H-pyrazole-4-carboxamide] | 6.91 | 7.72
N#Cc1ccc(Nc2nn([C@H]3CCCC[C@@H]3C#N)cc2C(N)=O)cc1 (racemic) [Example 17-5, 1-[(1S,2S and 1R,2R)-2-cyanocyclohexyl]-3-[(4-cyanophenyl)amino]-1H-pyrazole-4-carboxamide] | 8.05 | 9.00
Cc1noc(-c2ccc(Nc3nn([C@H]4CCCC[C@@H]4C#N)cc3C(N)=O)cc2)n1 (racemic) [Example 17-6, 1-[(1S,2S and 1R,2S)-2-cyanocyclohexyl]-3-{[4-(3-methyl-1,2,4-oxadiazol-5-yl)phenyl]amino}-1H-pyrazole-4-carboxamide] | 7.60 | 8.40
N#C[C@H]1CCCCC1n1cc(C(N)=O)c(Nc2ccc3c(c2)CCC(=O)N3)n1 (mixture of isomers) [Example 17-11, 1-[(1S,2S and 1R,2R)-2-cyanocyclohexyl]-3-[(2-oxo-1,2,3,4-tetrahydroquinolin-6-yl)amino]-1H-pyrazole-4-carboxamide] | 8.10 | 8.70
CC1(CN[C@H]2CCC(n3cc(C(N)=O)c(Nc4ccc(Cl)cc4)n3)[C@@H](C#N)C2)COC1 (single isomer, unassigned) [Example 28-217, 3-[(4-chlorophenyl)amino]-1-[(1S,2S,4S or 1R,2R,4R)-2-cyano-4-{[(3-methyloxetan-3-yl)methyl]amino}cyclohexyl]-1H-pyrazole-4-carboxamide] | 7.33 | 
CN([C@H]1CCC(n2cc(C(N)=O)c(Nc3ccc(Cl)cc3)n2)[C@@H](C#N)C1)C1(C)COC1 (single isomer, unassigned) [Example 28-232, 3-[(4-chlorophenyl)amino]-1-{(1S,2S,4S or 1R,2R,4R)-2-cyano-4-[methyl(3-methyloxetan-3-yl)amino]cyclohexyl}-1H-pyrazole-4-carboxamide] | 8.15 | 
CN(CC(F)(F)F)[C@H]1CCC(n2cc(C(N)=O)c(Nc3ccnc(F)c3)n2)[C@@H](C#N)C1 (single isomer, unassigned) [Example 28-233, 1-{(1S,2S,4S or 1R,2R,4R)-2-cyano-4-[methyl(2,2,2-trifluoroethyl)amino]cyclo-hexyl}-3-[(2-fluoropyridin-4-yl)amino]-1 H-pyrazole-4-carboxamide] | 8.22 | 
CC1(N[C@H]2CCC(n3cc(C(N)=O)c(Nc4ccc(Cl)cc4)n3)[C@@H](C#N)C2)CCOCC1 (single isomer, unassigned) [Example 28-235, 3-[(4-chlorophenyl)amino]-1-{(1S,2S,4S or 1R,2R,4R)-2-cyano-4-[(4-methyltetrahydro-2H-pyran-4-yl)amino]cyclohexyl}-1H-pyrazole-4-carboxamide] | 7.60 | 
CN(CC1CC1)[C@@H]1CC[C@H](n2cc(C(N)=O)c(Nc3ccc(C(F)(F)F)cc3)n2)[C@@H](C#N)C1 (single isomer, unassigned) [Example 30-2, 1-{(1S,2S,4R or 1R,2R,4S)-2-cyano-4-[(cyclopropyl-methyl)(methyl)amino]cyclo-hexyl}-3-{[4-(trifluoromethyl)phenyl]amino}-1H-pyrazole-4-carboxamide] | 6.87 | 
N#C[C@H]1C[C@H](NCc2c(F)cccc2F)CC[C@@H]1n1cc(C(N)=O)c(Nc2ccc(C(F)(F)F)cc2)n1 (single isomer, unassigned) [Example 30-13, 1-{(1S,2S,4R or 1R,2R,4S)-2-cyano-4-[(2,6-difluoro-benzyl)amino]cyclohexyl}-3-{[4-(trifluoromethyl)phenyl]amino}-1H-pyrazole-4-carboxamide] | 6.30 | 
N#C[C@H]1C[C@@H](O)CC[C@@H]1n1cc(C(N)=O)c(Nc2ccc(Cl)nc2)n1 (single isomer, unassigned) [Example 33-14, 3-[(6-chloropyridin-3-yl)amino]-1-[(1S,2S,4S or 1R,2R,4R)-2-cyano-4-hydroxycyclohexyl]-1H-pyrazole-4-carboxamide] | 7.85 | 
N#C[C@H]1C[C@@H](O)CC[C@@H]1n1cc(C(N)=O)c(Nc2ccc(C3CC3)cc2)n1 (single isomer, unassigned) [Example 33-18, 1-[(1S,2S,4S or 1R,2R,4R)-2-cyano-4-hydroxycyclohexyl]-3-[(4-cyclopropylphenyl)amino]-1H-pyrazole-4-carboxamide] | 8.00 | 
N#C[C@@H]1C[C@H](C(=O)NC2CCC2)CC[C@H]1n1cc(C(N)=O)c(Nc2ccc(Cl)cc2)n1 (single isomer, unassigned) [Example 35-11, 3-[(4-chlorophenyl)amino]-1-[(1R,2R,4R or 1S,2S,4S)-2-cyano-4-(cyclobutylcarbamoyl)cyclohexyl]-1H-pyrazole-4-carboxamide] | 7.11 | 
N#C[C@H]1C[C@@H](C(=O)NC2CCC2)CC[C@@H]1n1cc(C(N)=O)c(Nc2ccc(Cl)cc2)n1 (single isomer, unassigned) [Example 35-12, 3-[(4-chlorophenyl)amino]-1-[(1S,2S,4S or 1R,2R,4R)-2-cyano-4-(cyclobutylcarbamoyl)cyclohexyl]-1H-pyrazole-4-carboxamide] | 6.99 | 
N#C[C@@H]1CCCC[C@H]1n1cc(C(N)=O)c(Nc2ccc(S(=O)(=O)C(F)F)cc2)n1 (single isomer, unassigned) [Example 43-5, 1-[(1S,2S or 1R,2R)-2-cyanocyclohexyl]-3-({4-[(difluoromethyl)sulfonyl]phenyl}amino)-1H-pyrazole-4-carboxamide] | 7.55 | 
N#C[C@@H]1CCCC[C@H]1n1cc(C(N)=O)c(Nc2ccc(S(=O)(=O)C(F)F)cc2)n1 (single isomer, unassigned) [Example 43-6, 1-[(1S,2S or 1R,2R)-2-cyanocyclohexyl]-3-({4-[(difluoromethyl)sulfonyl]phenyl}amino)-1H-pyrazole-4-carboxamide] | 8.70 | 
CC(C)(C)OC(=O)N[C@@H]1CC[C@H](C#N)C(n2cc(C(N)=O)c(Nc3ccc(F)cc3)n2)C1 (single isomer, unassigned) [Example 44-1, tert-Butyl[(1R,3S,4S or 1S,3R,4R)-3-{4-carbamoyl-3-[(4-fluorophenyl)amino]-1H-pyrazol-1-yl}-4-cyanocyclohexyl]carbamate] | 7.37 | 
CC(C)(C)OC(=O)N[C@@H]1CC[C@H](C#N)C(n2cc(C(N)=O)c(Nc3ccc(F)cc3)n2)C1 (single isomer, unassigned) [Example 44-2, tert-Butyl[(1R,3S,4S or 1S,3R,4R)-3-{4-carbamoyl-3-[(4-fluorophenyl)amino]-1H-pyrazol-1-yl}-4-cyanocyclohexyl]carbamate] | 6.00 | 
